This is an account of results in patent US20240158446A1, “CYCLIC COMPOUND HAVING SELECTIVE INHIBITORY ACTION ON KRAS OVER HRAS AND NRAS” (CHUGAI SEIYAKU KABUSHIKI KAISHA, priority 2021, published 2024).

Assay [1] addresses GDP-bound KRAS wild-type protein (Homo sapiens, UniProt P01116). The experiment in a line: Binding to KRAS by surface plasmon resonance (SPR), Single Cycle Kinetics. The settings on record: SPR Single Cycle Kinetics, GDP-bound KRAS wild-type protein, 1:1 binding model; read-out: KRAS KD.
The target of assay [2] is GDP-bound HRAS wild-type protein (Homo sapiens, UniProt P01112). The experiment in a line: Binding to HRAS by surface plasmon resonance (SPR), Single Cycle Kinetics. The settings on record: SPR, GDP-bound HRAS wild-type protein vs GDP-bound KRAS wild-type protein.
GDP-bound HRAS wild-type protein, sequence (P01112 whole entry): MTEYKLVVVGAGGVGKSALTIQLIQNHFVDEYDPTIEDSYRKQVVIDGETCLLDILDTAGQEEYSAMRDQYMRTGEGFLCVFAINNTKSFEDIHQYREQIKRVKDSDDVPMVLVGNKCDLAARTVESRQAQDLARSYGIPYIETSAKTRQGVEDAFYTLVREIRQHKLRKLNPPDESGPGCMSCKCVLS
The target of assay [3] is GDP-bound NRAS wild-type protein (Homo sapiens, UniProt P01111). The experiment in a line: Binding to NRAS by surface plasmon resonance (SPR), Single Cycle Kinetics. The settings on record: SPR, GDP-bound NRAS wild-type protein vs GDP-bound KRAS wild-type protein. For orientation: SPR reads the build-up and loss of mass on a sensor chip optically.
GDP-bound NRAS wild-type protein, sequence (P01111 whole entry): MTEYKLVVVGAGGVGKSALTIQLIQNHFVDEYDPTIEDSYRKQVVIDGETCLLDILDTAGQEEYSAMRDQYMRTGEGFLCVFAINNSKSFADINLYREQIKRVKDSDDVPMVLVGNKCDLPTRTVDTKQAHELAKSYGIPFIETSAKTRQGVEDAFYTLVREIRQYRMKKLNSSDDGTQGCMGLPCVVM

Molecules are shown by their SMILES. *1 amine or outer side, *2 acyl side, *3 side chain or, on linkers, in order; H or OH if unused. Where a SMILES comes first, the peptide text is derived from it. Bridges are numbered along the chain shown (N, C = ends). [ ]: non-standard residue; d: D form. The star is where a group is joined. hPhe(3-Cl-4-CF3) = N[C@@H](CCc1ccc(C(F)(F)F)c(Cl)c1)C(=O)O; NPrPhe(4-CF3) = CCCN[C@@H](Cc1ccc(C(F)(F)F)cc1)C(=O)O; Pro(4-spirocPr) = O=C(O)[C@@H]1CC2(CC2)CN1; NMeGly(cPent) = CN[C@H](C(=O)O)C1CCCC1; NMeD = CN[C@@H](CC(=O)O)C(=O)O; NMeL = CN[C@@H](CC(C)C)C(=O)O; X12 = N#CCN(CC(=O)[*:2])[*:1]; Morpholide = C1CN(*)CCO1; NMeA = CN[C@@H](C)C(=O)O; Ac5c = NC1(C(=O)O)CCCC1; Aze = O=C(O)[C@@H]1CCN1; NPrGly = CCCNCC(=O)O; Sar = CNCC(=O)O

GDP-bound KRAS wild-type protein, sequence (P01116 whole entry): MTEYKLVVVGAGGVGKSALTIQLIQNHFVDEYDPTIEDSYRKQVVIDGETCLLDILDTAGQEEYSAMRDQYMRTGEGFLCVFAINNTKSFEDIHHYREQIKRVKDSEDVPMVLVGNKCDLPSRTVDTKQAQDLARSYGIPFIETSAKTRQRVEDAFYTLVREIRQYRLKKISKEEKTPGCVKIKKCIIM

For the compound `CCCN1CC(=O)N2CC[C@H]2C(=O)N(CCC)[C@@H](Cc2ccc(C(F)(F)F)cc2)C(=O)N(C)CC(=O)N[C@@H](CCc2ccc(C(F)(F)F)c(Cl)c2)C(=O)N2CCC[C@H]2C(=O)NC2(CCCC2)C(=O)N(C)[C@@H](C2CCCC2)C(=O)N(C)[C@H](C(=O)N2CCOCC2)CC(=O)N(C)[C@@H](CC(C)C)C(=O)N[C@@H]([C@@H](C)CC)C1=O` [PP0274] ([NMeL]I[NPrGly][Aze][NPrPhe(4-CF3)][Sar][hPhe(3-Cl-4-CF3)]P[Ac5c][NMeGly(cPent)][NMeD]-Morpholide; lactam N-11), the Kd in assay [1] was found to be 0.47 nM. Also, the “HRAS/KRAS (ratio of KD value for HRAS to KD value for KRAS)” value in assay [2] was “B (a compound having 3 or more and less than 10 is denoted as B)”. Moreover, the “NRAS/KRAS (ratio of KD value for NRAS to KD value for KRAS)” value in assay [3] was “C (A compound having a KD ratio of 0.1 or more and less than 3 is denoted as C)”.

In the case of `CCCN1C(=O)[C@@H]2CCN2C(=O)CN(CC#N)C(=O)[C@H]([C@@H](C)CC)NC(=O)[C@H](CC(C)C)N(C)C(=O)C[C@@H](C(=O)N2CCOCC2)N(C)C(=O)[C@H](C2CCCC2)N(C)C(=O)C2(CCCC2)NC(=O)[C@@H]2CCCN2C(=O)[C@H](CCc2ccc(C(F)(F)F)c(Cl)c2)NC(=O)CN(C)C(=O)[C@@H]1Cc1ccc(C(F)(F)F)cc1` [PP0275] ([NMeL]I[X12][Aze][NPrPhe(4-CF3)][Sar][hPhe(3-Cl-4-CF3)]P[Ac5c][NMeGly(cPent)][NMeD]-Morpholide; lactam N-11), the Kd in assay [1] turned out to be 0.3 nM. Further, the “HRAS/KRAS (ratio of KD value for HRAS to KD value for KRAS)” value in assay [2] was “C (A compound having a KD ratio of 0.1 or more and less than 3 is denoted as C)”. For the same compound, the “NRAS/KRAS (ratio of KD value for NRAS to KD value for KRAS)” value in assay [3] was “C (A compound having a KD ratio of 0.1 or more and less than 3 is denoted as C)”.

Consider `CCCN1C(=O)[C@@H]2CCN2C(=O)[C@H](C)N(C)C(=O)[C@H]([C@@H](C)CC)NC(=O)[C@H](CC(C)C)N(C)C(=O)C[C@@H](C(=O)N2CCOCC2)N(C)C(=O)[C@H](C2CCCC2)N(C)C(=O)C2(CCCC2)NC(=O)[C@@H]2CCN2C(=O)[C@H](CCc2ccc(C(F)(F)F)c(Cl)c2)NC(=O)CN(C)C(=O)[C@@H]1Cc1ccc(C(F)(F)F)cc1` [PP0281] ([NMeL]I[NMeA][Aze][NPrPhe(4-CF3)][Sar][hPhe(3-Cl-4-CF3)][Aze][Ac5c][NMeGly(cPent)][NMeD]-Morpholide; lactam N-11), for which the Kd in assay [1] turned out to be 0.48 nM. The “HRAS/KRAS (ratio of KD value for HRAS to KD value for KRAS)” value in assay [2] was “C (A compound having a KD ratio of 0.1 or more and less than 3 is denoted as C)”. In addition, in assay [3], the “NRAS/KRAS (ratio of KD value for NRAS to KD value for KRAS)” value is “C (A compound having a KD ratio of 0.1 or more and less than 3 is denoted as C)”.

For `CCCN1C(=O)[C@@H]2CCN2C(=O)[C@H](C)N(C)C(=O)[C@H]([C@@H](C)CC)NC(=O)[C@H](CC(C)C)N(C)C(=O)C[C@@H](C(=O)N2CCOCC2)N(C)C(=O)[C@H](C2CCCC2)N(C)C(=O)C2(CCCC2)NC(=O)[C@@H]2CC3(CC3)CN2C(=O)[C@H](CCc2ccc(C(F)(F)F)c(Cl)c2)NC(=O)CN(C)C(=O)[C@@H]1Cc1ccc(C(F)(F)F)cc1` [PP0282] ([NMeL]I[NMeA][Aze][NPrPhe(4-CF3)][Sar][hPhe(3-Cl-4-CF3)][Pro(4-spirocPr)][Ac5c][NMeGly(cPent)][NMeD]-Morpholide; lactam N-11), the Kd in assay [1] was found to be 0.11 nM. The “HRAS/KRAS (ratio of KD value for HRAS to KD value for KRAS)” value in assay [2] was “C (A compound having a KD ratio of 0.1 or more and less than 3 is denoted as C)”. For the same compound, the “NRAS/KRAS (ratio of KD value for NRAS to KD value for KRAS)” value in assay [3] was “C (A compound having a KD ratio of 0.1 or more and less than 3 is denoted as C)”.

As a reminder, the Kd is the free concentration of one partner at which half of the binding sites on the other are occupied at equilibrium, for simple one-to-one binding.
